# Data taken from patent publication US6203824A (priority 1992, dated 2001).
# “And” between values parts separate entries of the source, which are not always exact repeats. Equal values may be shown once. Read-outs that look alike come from different tables or passages of the source.
# Experiments:
# Sitophilus granarius = conditions: in vivo; cited from earlier work
# Trogoderma granarium = conditions: in vivo; cited from earlier work
# Sitophilus oryzae = conditions: in vivo; cited from earlier work
# Tribolium confusum = conditions: in vivo; cited from earlier work
# Tenebroides mauritanicus = conditions: in vivo; cited from earlier work
# [1] = test system: Oryzsephilus surinamensis; conditions: in vivo; cited from earlier work
# Rhyzopertha dominica = conditions: in vivo; cited from earlier work
# [2] = 25° C.; cited from earlier work
# Tribolium castaneum = conditions: in vivo; cited from earlier work
# B. tyroni [3] = assay: whole plant or invertebrate; conditions: Bactrocera, inhaled or nasal, read-out: Corrected mortality
# [4] = test system: Liposcelis bostrychophilus; conditions: in vivo
# L. destructor = conditions: in vivo
# mould = conditions: in vivo
# R. dominica = conditions: in vivo
# S. oryzae [5] = conditions: in vivo
# Mice = conditions: cited from earlier work
# [6] = test system: Coptotermes acinaciformis; assay: whole plant or invertebrate; conditions: inhaled or nasal, 24 h, read-out: Corrected mortality
# Rabbits = conditions: rabbit, in vivo; cited from earlier work
# [7] = moist soil
# Cold blooded animals = conditions: in vivo; cited from earlier work
# B. tyroni [8] = conditions: queensland fruit fly, in vivo, inhaled
# S. oryzae [9] = test system: S. oryzae; parameters: species or system Sitophilus oryzae; conditions: in vivo
# [10] = test system: grains of Australian standard white wheat and malting barley; conditions: in vivo
# [11] = format: physicochemical; conditions: empty vial, 15 min
smiles,measurement,setting,value
"C=CC#N [Acrylonitrile, acrylonitrile]",LC99 (concentration x time product),Sitophilus granarius,11.0
same,LC95 (concentration x time product),Trogoderma granarium,48.0
same,LC95 (concentration x time product),Sitophilus oryzae,10.8
same,LC99 (concentration x time product),Tribolium confusum,19.5
same,LC99 (concentration x time product),Tenebroides mauritanicus,40.0
same,LC95 (concentration x time product),[1],8.4
same,LC95 (concentration x time product),Rhyzopertha dominica,8.4
"S=C=S [Carbon disulphide, carbon disulphide]",LC99 (concentration x time product),Sitophilus granarius,325.0
same,LC95 (concentration x time product),Trogoderma granarium,696.0
same,LC95 (concentration x time product),Sitophilus oryzae,300.0
same,LC99 (concentration x time product),Tribolium confusum,560.00
same,LC99 (concentration x time product),Tenebroides mauritanicus,828.00
same,solubility in water,[2],2.2 grams per litre
same,LC95 (concentration x time product),[1],408.0
same,LC95 (concentration x time product),Rhyzopertha dominica,294.0
"ClC(Cl)(Cl)Cl [Carbon tetrachloride, carbon tetrachloride]",LC99 (concentration x time product),Sitophilus granarius,495.0
same,LC95 (concentration x time product),Sitophilus oryzae,220.0
same,LC99 (concentration x time product),Tribolium confusum,025.0
same,LD50 (concentration x time product),Tenebroides mauritanicus,400.00
same,LC90 (concentration x time product),Tribolium castaneum,600.0
"BrCCBr [Ethylene dibromide, ethylene dibromide]",LC99 (concentration x time product),Sitophilus granarius,34.5
same,LC95 (concentration x time product),Trogoderma granarium,80.0
same,LC95 (concentration x time product),Sitophilus oryzae,60.0
same,LC99 (concentration x time product),Tribolium confusum,31.0
same,LC99 (concentration x time product),Tenebroides mauritanicus,125.00
same,LD95 (concentration x time product),Tribolium castaneum,22.0
same,LC95 (concentration x time product),[1],19.2
same,LC95 (concentration x time product),Rhyzopertha dominica,37.2
"ClCCCl [Ethylene dichloride, ethylene dichloride]",LC99 (concentration x time product),Sitophilus granarius,230.0
same,LC95 (concentration x time product),Trogoderma granarium,2080.5
same,LC95 (concentration x time product),Sitophilus oryzae,738.0
same,LC99 (concentration x time product),Tribolium confusum,365.0
same,LC99 (concentration x time product),Tenebroides mauritanicus,1728.0
same,LC90 (concentration x time product),Tribolium castaneum,462.0
same,LC95 (concentration x time product),[1],462.0
same,LC95 (concentration x time product),Rhyzopertha dominica,636.0
"C1CO1 [Ethylene oxide, ethylene oxide]",LC99 (concentration x time product),Sitophilus granarius,36.0
same,LC95 (concentration x time product),Trogoderma granarium,176.0
same,LC95 (concentration x time product),Sitophilus oryzae,62.0
same,LC99 (concentration x time product),Tribolium confusum,127.5
same,LC99 (concentration x time product),Tenebroides mauritanicus,175.0
same,LD99 (concentration x time product),Tribolium castaneum,135.0
same,LC95 (concentration x time product),[1],60.0
same,LC95 (concentration x time product),Rhyzopertha dominica,69.6
"CBr [Methyl bromide, methyl bromide]",LC99 (concentration x time product),Sitophilus granarius,28.0
same,LC95 (concentration x time product),Trogoderma granarium,136.0
same,LD99 (concentration x time product),Sitophilus oryzae,30.0
same,LC99 (concentration x time product),Tribolium confusum,64.0
same,LC99 (concentration x time product),Tenebroides mauritanicus,115.0
same,solubility in water,[2],13.4 grams per litre
same,LD95 (concentration x time product),Tribolium castaneum,62.0
same,LC95 (concentration x time product),[1],40.8
same,LC95 (concentration x time product),Rhyzopertha dominica,33.0
"P [Phosphine, phosphine]",LC99 (concentration x time product),Sitophilus granarius,1.01
same,100% mort. (concentration x time product),Trogoderma granarium,331.0
same,LD99 (concentration x time product),Sitophilus oryzae,0.36
same,LC99 (concentration x time product),Tribolium confusum,0.48
same,LC99 (concentration x time product),Tenebroides mauritanicus,~5.0
same,LC90 (concentration x time product),Tribolium castaneum,11.5
same,LD99 (concentration x time product),[1],0.96
same,LD99 (concentration x time product),Rhyzopertha dominica,0.6
"O=S(=O)(F)F [Sulphuryl fluoride, sulphuryl fluoride]",LC99 (concentration x time product),Sitophilus granarius,17.5
same,LC99 (concentration x time product),Tribolium confusum,55.0
same,LC99 (concentration x time product),Tenebroides mauritanicus,81.5
O=C=S [carbonyl sulphide],mortality at 120 mg h/L,B. tyroni [3]; 6 h,12.6%
same,mortality at 150 mg h/L,B. tyroni [3]; 6 h,13.5%
same,mortality at 210 mg h/L,B. tyroni [3]; 6 h,100%
same,mortality at 300 mg h/L,B. tyroni [3]; 6 h,91.7%
same,mortality at 360 mg h/L,B. tyroni [3]; 6 h,100%
same,mortality at 480 mg h/L,B. tyroni [3]; 6 h,99.2%
same,mortality at 600 mg h/L,B. tyroni [3]; 6 h,100%
same,mortality at 720 mg h/L,B. tyroni [3]; 6 h,99.7%
same,mortality at 870 mg h/L,B. tyroni [3]; 6 h,93.3%
same,mortality at 120 mg h/L,B. tyroni [3]; 24 h,37.1%
same,mortality at 180 mg h/L,B. tyroni [3]; 24 h,4.9%
same,mortality at 240 mg h/L,B. tyroni [3]; 24 h,19.5%
same,mortality at 366 mg h/L,B. tyroni [3]; 24 h,53.3%
same,mortality at 420 mg h/L,B. tyroni [3]; 24 h,88.8%
same,mortality at 480 mg h/L,B. tyroni [3]; 24 h,98.3%
same,mortality at 540 mg h/L,B. tyroni [3]; 24 h,98.3%
same,mortality at 600 mg h/L,B. tyroni [3]; 24 h,100%
same,Minimum effective tested dose,[4],22.5
same,psocids dead after exposure,[4],all 200 of the psocids were dead
same,Minimum effective tested dose,L. destructor,120
same,Corrected mortality,"L. destructor; mite, inhaled, 6 h",100%
same,discolouration of wheat by mould,mould,no discolouration occurred
same,No. emerging,R. dominica,2
same,"control of all immature stages of R. dominica, on average","R. dominica; rhyzopertha dominica, 24 h",93.4 per cent
same,No. emerged,S. oryzae [5],2
same,time to death,Mice; 1200 ppm,35 min
same,time to death,Mice; 2900 ppm,11/2
same,time to death,Mice; 8900 ppm,3/4
same,concentration in air above which mice die quickly,"Mice; mouse, in vivo",more than 0.3 per cent
same,effects after exposure,"Mice; mouse, in vivo",no perceptible effects
same,mortality at 192 mg h/L,[6],0%
same,mortality at 600 mg h/L,[6],100%
same,concentration in air above which rabbits die quickly,Rabbits,more than 0.3 per cent
same,effects after exposure,Rabbits,some ill effects
same,concentration as per cent of the calculated initial concentration,[7]; 2 min,62 per cent
same,concentration as per cent of the calculated initial concentration,[7]; 5 h,18 per cent
same,concentration as per cent of the calculated initial concentration,[7]; 20 h,5.9 per cent
same,resistance compared with warm-blooded animals,Cold blooded animals,more resistance
same,Corrected mortality,B. tyroni [8]; 6 h,100%
same,Corrected mortality,B. tyroni [8]; 24 h,100%
same,Number of insects emerging from culture,S. oryzae [9],2
same,"% Germination, final count (10 days)",[10],96% and 93% and 92%
same,"% Germination, first count (4 days)",[10],93% and 91% and 89%
same,effect on seed germination or vigour,[10],no effect on seed germination or vigour was detected
same,recovery of the calculated applied dose,[11],98.4 per cent
same,solubility in water,[2],1.4 grams per litre
